According to ChEMBL document CHEMBL1136637, “Prodrugs to enhance central nervous system effects of the TRH-like peptide pGlu-Glu-Pro-NH2” (Bioorg Med Chem Lett, 2003):
Square brackets hold non-standard residues; d marks the D form. Peptide text beside a SMILES is read from it. * marks the point of attachment. ξ: configuration not given here. pGlu = O=C1CC[C@@H](C(=O)O)N1; ξE = NC(CCC(=O)O)C(=O)O; OcHex = C1CCC(O*)CC1; OBn = c1ccc(CO*)cc1; OtBu = CC(C)(C)O*

Experiments:
[1] = Half-life using mouse brain homogenate; format: ADME
[2] = organism: Mus musculus; assay: (§1) Effective dose required for producing 50% of the maximum analeptic response was determined; format: functional
[3] = organism: Mus musculus; assay: as §1; format: functional, organism-based

In the case of `CCCCCCOC(=O)CCC(NC(=O)[C@@H]1CCC(=O)N1)C(=O)N1CCC[C@H]1C(N)=O` (some centres not stated), the half-life [1] was 22 min and the ED50 [2] was 2.4 µmol/kg.

For `NC(=O)[C@@H]1CCCN1C(=O)[C@H](CCC(=O)O)NC(=O)[C@@H]1CCC(=O)N1` ([pGlu]-Glu-Pro-NH2), the EC50 [3] was 23.2 µM/kg.

Compound `NC(=O)[C@@H]1CCCN1C(=O)C(CCC(=O)OCc1ccccc1)NC(=O)[C@@H]1CCC(=O)N1` (some centres not stated) ([pGlu]-[ξE](OBn)-Pro-NH2) has a half-life [1] greater than 120 min.

`COC(=O)CCC(NC(=O)[C@@H]1CCC(=O)N1)C(=O)N1CCC[C@H]1C(N)=O` (some centres not stated) ([pGlu]-[ξE](OMe)-Pro-NH2) gave a half-life [1] of 20 min.

With `NC(=O)[C@@H]1CCCN1C(=O)C(CCC(=O)OC1CCCCC1)NC(=O)[C@@H]1CCC(=O)N1` (some centres not stated) ([pGlu]-[ξE](OcHex)-Pro-NH2) the half-life [1] was 25 min.

`CC(C)(C)OC(=O)CCC(NC(=O)[C@@H]1CCC(=O)N1)C(=O)N1CCC[C@H]1C(N)=O` (some centres not stated) ([pGlu]-[ξE](OtBu)-Pro-NH2) gave a half-life [1] of 70 min.
